Source: US8946215B2, “Hydroxy-substituted imidazo[1,2-a]pyridinecarboxamides and their use” (Bayer Pharma Aktiengesellschaft, priority 2012, dated 2015)

The molecules below were run against T1, recombinant guanylate cyclase reporter cell line (Rattus norvegicus, UniProt P19686+P20595) (assay: Action on recombinant guanylate cyclase reporter cell line). Conditions: in some cases mean values obtained from individual determinations.
T1 construct: expressed in transfected cells
T1 sequence (P20595 1-619): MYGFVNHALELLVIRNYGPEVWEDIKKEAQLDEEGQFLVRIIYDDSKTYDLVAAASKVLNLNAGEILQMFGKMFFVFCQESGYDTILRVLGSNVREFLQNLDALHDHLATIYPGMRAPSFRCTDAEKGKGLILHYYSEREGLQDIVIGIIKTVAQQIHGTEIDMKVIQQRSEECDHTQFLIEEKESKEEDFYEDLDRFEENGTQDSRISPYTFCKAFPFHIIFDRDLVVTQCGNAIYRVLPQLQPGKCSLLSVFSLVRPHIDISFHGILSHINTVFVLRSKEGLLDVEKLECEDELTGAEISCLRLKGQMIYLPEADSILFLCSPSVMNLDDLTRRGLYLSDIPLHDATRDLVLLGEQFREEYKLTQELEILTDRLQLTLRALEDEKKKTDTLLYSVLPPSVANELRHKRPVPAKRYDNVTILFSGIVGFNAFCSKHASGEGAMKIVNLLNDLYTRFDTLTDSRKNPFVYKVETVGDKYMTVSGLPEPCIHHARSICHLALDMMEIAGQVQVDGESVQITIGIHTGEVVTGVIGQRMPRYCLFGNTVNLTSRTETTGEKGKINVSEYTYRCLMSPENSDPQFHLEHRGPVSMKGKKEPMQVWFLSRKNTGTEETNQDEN
T1 sequence (P19686 1-690): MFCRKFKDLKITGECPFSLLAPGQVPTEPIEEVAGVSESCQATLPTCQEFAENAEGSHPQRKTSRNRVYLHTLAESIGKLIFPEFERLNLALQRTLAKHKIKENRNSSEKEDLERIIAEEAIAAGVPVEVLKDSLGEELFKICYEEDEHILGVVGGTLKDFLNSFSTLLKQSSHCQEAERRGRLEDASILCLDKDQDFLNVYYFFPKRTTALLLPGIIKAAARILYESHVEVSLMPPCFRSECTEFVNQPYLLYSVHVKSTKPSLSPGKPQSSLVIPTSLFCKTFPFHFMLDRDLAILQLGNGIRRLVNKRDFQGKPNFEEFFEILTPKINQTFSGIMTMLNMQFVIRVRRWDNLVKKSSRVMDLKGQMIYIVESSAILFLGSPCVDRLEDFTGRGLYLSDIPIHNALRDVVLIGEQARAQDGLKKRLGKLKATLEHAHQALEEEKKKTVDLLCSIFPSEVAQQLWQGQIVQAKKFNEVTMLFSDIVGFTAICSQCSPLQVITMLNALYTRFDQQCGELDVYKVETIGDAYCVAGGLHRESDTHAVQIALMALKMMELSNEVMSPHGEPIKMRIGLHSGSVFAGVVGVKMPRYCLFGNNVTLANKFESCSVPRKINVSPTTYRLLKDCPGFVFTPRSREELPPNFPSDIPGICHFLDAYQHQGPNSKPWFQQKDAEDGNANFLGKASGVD
Type: cell-based
Method: B-2. Action on Recombinant Guanylate Cyclase Reporter Cell Line
The cellular action of the compounds according to the invention is determined on a recombinant guanylate cyclase reporter cell line, as described in F. Wunder et al., Anal. Biochem. 339, 104-112 (2005).
Representative values (MEC=minimal effective concentration) for the compounds according to the invention are shown in the following table (in some cases as mean values obtained from individual determinations): […]

In order of rising “MEC (minimal effective concentration)” value:
1. Cc1nc2c(OCc3c(F)cccc3F)cccn2c1C(=O)NC(CO)CCCC(F)(F)F (single isomer, unassigned; ent-8) [Example 123, ent-8-[(2,6-Difluorobenzyl)oxy]-2-methyl-N-(6,6,6-trifluoro-1-hydroxyhexan-2-yl)imidazo[1,2-a]-pyridine-3-carboxamide]  0.03 µM
2. Cc1nc2c(OCc3c(F)cccc3F)cccn2c1C(=O)NC(CC(F)(F)F)C(C)(C)O (single isomer, unassigned; ent-8) [Example 154, ent-8-[(2,6-Difluorobenzyl)oxy]-2-methyl-N-(1,1,1-trifluoro-4-hydroxy-4-methylpentan-3-yl)-imidazo[1,2-a]pyridine-3-carboxamide]  0.03 µM
3. Cc1nc2c(OCc3c(F)cccc3F)cccn2c1C(=O)NC(CCCC(F)(F)F)C(C)(C)O (single isomer, unassigned; ent-8) [Example 156, ent-8-[(2,6-Difluorobenzyl)oxy]-2-methyl-N-(7,7,7-trifluoro-2-hydroxy-2-methylheptan-3-yl)-imidazo[1,2-a]pyridine-3-carboxamide]  0.03 µM
4. CCCC[C@H](CO)NC(=O)c1c(C)nc2c(OCc3c(F)ccc(F)c3F)cccn12 [Example 2]  0.03 µM
5. CCCC[C@H](CO)NC(=O)c1c(C)nc2c(OCc3c(F)cccc3F)cccn12 [Example 1, 8-[(2,6-Difluorobenzyl)oxy]-N-[(2R)-1-hydroxyhexan-2-yl]-2-methylimidazo[1,2-a]pyridine-3-carboxamide]  0.05 µM
6. Cc1nc2c(OCc3c(F)cccc3F)cccn2c1C(=O)NC(CCC(F)(F)F)C(C)(C)O (single isomer, unassigned; ent-8) [Example 155, ent-8-[(2,6-Difluorobenzyl)oxy]-2-methyl-N-(6,6,6-trifluoro-2-hydroxy-2-methylhexan-3-yl)-imidazo[1,2-a]pyridine-3-carboxamide]  0.1 µM
7. CCCC[C@H](CO)NC(=O)c1c(C)nc2c(OCc3c(F)cccc3Cl)cccn12 [Example 3]  0.1 µM
8. CCCC[C@H](CO)NC(=O)c1c(C)nc2c(OCc3ccccc3Cl)cccn12 [Example 4]  0.1 µM
9. CCCC[C@H](CO)NC(=O)c1c(C)nc2c(OCc3ccccc3F)cccn12 [Example 5]  0.1 µM
10. CCCC[C@H](CO)NC(=O)c1c(C)nc2c(OCc3cccc(F)c3)cccn12 [Example 6]  0.1 µM
11. Cc1nc2c(OCc3ncccc3F)cccn2c1C(=O)NC(CCCC(F)(F)F)C(C)(C)O (single isomer, unassigned; ent-8) [Example 183, ent-8-[(3-fluoropyridin-2-yl)methoxy]-2-methyl-N-(7,7,7-trifluoro-2-hydroxy-2-methylheptan-3-yl)imidazo[1,2-a]pyridine-3-carboxamide (enantiomer B)]  0.3 µM
12. Cc1cc(OCc2ncccc2F)c2nc(C)c(C(=O)NC(CC(F)(F)F)C(C)(C)O)n2c1 (single isomer, unassigned; ent-8) [Example 185, ent-8-[(3-fluoropyridin-2-yl)methoxy]-2,6-dimethyl-N-(1,1,1-trifluoro-4-hydroxy-4-methylpentan-3-yl)imidazo[1,2-a]pyridine-3-carboxamide (enantiomer B)]  0.3 µM
13. CCCC[C@H](CO)NC(=O)c1c(C)nc2c(OCc3c(F)c(F)cc(F)c3F)cccn12 [Example 7]  0.3 µM
14. CCCC[C@H](CO)NC(=O)c1c(C)nc2c(OCc3c(Cl)cccc3Cl)cccn12 [Example 8]  0.3 µM
15. CCCC[C@H](CO)NC(=O)c1c(C)nc2c(OCc3cccc(F)c3F)cccn12 [Example 10]  0.3 µM
16. CCCC[C@H](CO)NC(=O)c1c(C)nc2c(OCc3cccc(Cl)c3Cl)cccn12 [Example 9]  0.5 µM
17. Cc1nc2c(OCc3ncccc3F)cccn2c1C(=O)NC(CCCC(F)(F)F)C(C)(C)O (single isomer, unassigned; ent-8) [Example 182, ent-8-[(3-fluoropyridin-2-yl)methoxy]-2-methyl-N-(7,7,7-trifluoro-2-hydroxy-2-methylheptan-3-yl)imidazo[1,2-a]pyridine-3-carboxamide (enantiomer A)]  0.65 µM
18. CCOCC(CO)NC(=O)c1c(C)nc2c(OCc3c(F)cccc3F)cccn12 (single isomer, unassigned; ent-8) [Example 161, ent-8-[(2,6-Difluorobenzyl)oxy]-N-(1-ethoxy-3-hydroxypropan-2-yl)-2-methylimidazo[1,2-a]-pyridine-3-carboxamide (enantiomer A)]  1.0 µM
19. CCCCC(NC(=O)c1c(C)nc2c(OC(C)c3c(F)cccc3F)cc(C)cn12)C(C)(C)O (single isomer, unassigned; ent-8) [Example 171, ent-8-[1-(2,6-Difluorophenyl)ethoxy]-N-(2-hydroxy-2-methylheptan-3-yl)-2,6-dimethylimidazo-[1,2-a]pyridine-3-carboxamide]  1.0 µM
20. Cc1cc(OCc2c(F)cncc2F)c2nc(C)c(C(=O)NC(CCCC(F)(F)F)C(C)(C)O)n2c1 (single isomer, unassigned; ent-8) [Example 189, ent-8-[(3,5-difluoropyridine-4-yl)methoxy]-2,6-dimethyl-N-(7,7,7-trifluoro-2-hydroxy-2-methylheptan-3-yl)imidazo[1,2-a]pyridine-3-carboxamide (enantiomer A)]  1 µM
21. Cc1cc(OCc2c(F)cncc2F)c2nc(C)c(C(=O)NC(CCC(F)(F)C(F)(F)F)C(C)(C)O)n2c1 (single isomer, unassigned; ent-8) [Example 193, ent-8-[(3,5-difluoropyridine-4-yl)methoxy]-2,6-dimethyl-N-(6,6,7,7,7-pentafluoro-2-hydroxy-2-methylheptan-3-yl)imidazo[1,2-a]pyridine-3-carboxamide (enantiomer A)]  1 µM
22. CCCC[C@H](CO)NC(=O)c1c(C)nc2c(OCc3cccc(C)c3F)cccn12 [Example 11]  1.5 µM
23. Cc1cc(OCc2ncccc2F)c2nc(C)c(C(=O)NC(CCCC(F)(F)C(F)(F)F)C(C)(C)O)n2c1 (single isomer, unassigned; ent-8) [Example 192, ent-8-[(3-fluoropyridin-2-yl)methoxy]-2,6-dimethyl-N-(7,7,8,8,8-pentafluoro-2-hydroxy-2-methyloctan-3-yl)imidazo[1,2-a]pyridine-3-carboxamide (enantiomer B)]  2 µM
24. Cc1cc(OCc2ncccc2F)c2nc(C)c(C(=O)NC(CCCC(F)(F)C(F)(F)F)C(C)(C)O)n2c1 (single isomer, unassigned; ent-8) [Example 191, ent-8-[(3-fluoropyridin-2-yl)methoxy]-2,6-dimethyl-N-(7,7,8,8,8-pentafluoro-2-hydroxy-2-methyloctan-3-yl)imidazo[1,2-a]pyridine-3-carboxamide (enantiomer A)]  3 µM
25. Cc1cc(OCc2ncccc2F)c2nc(C)c(C(=O)NC(CCC(O)C(F)(F)F)C(C)(C)O)n2c1 (single isomer, unassigned; ent-8) [Example 196, ent-8-[(3-fluoropyridin-2-yl)methoxy]-2,6-dimethyl-N-(7,7,7-trifluoro-2,6-dihydroxy-2-methylheptan-3-yl)imidazo[1,2-a]pyridine-3-carboxamide (enantiomer D)]  3 µM
26. CCCC[C@H](CO)NC(=O)c1c(C)nc2c(OCc3cccc4c3OC(F)(F)O4)cccn12 [Example 12]  3.0 µM
27. CCCC[C@H](CO)NC(=O)c1c(C)nc2c(OCc3c(C)cccc3C)cccn12 [Example 13]  3.0 µM
